Test results published in patent publication US20260015340A1, “COMPOUND INCLUDING 2,4-DIAMINOPYRIDINE, PREPARATION METHOD THEREFOR, AND PHARMACEUTICAL COMPOSITION CONTAINING SAME AS ACTIVE INGREDIENT FOR PREVENTION OR TREATMENT OF CANCER” (KOREA RESEARCH INSTITUTE OF CHEMICAL TECHNOLOGY, priority 2022, published 2026).
Where two headings read alike, the source gives them in different places.

Columns and labels:
[1] = tested on: human ovarian cancer cell line A2780; test: Anticancer activity, CCK8 cell viability; type: cell-based; conditions: 72 h, A2780 cells, three days, FIG. 1
Experimental: (§1) The anticancer activity of the MLK3 and HPK1 kinase inhibitor compounds was evaluated using the human ovarian cancer cell line A2780 and the cisplatin-resistant cell line A2780/cis. A2780 and A2780/cis cells were cultured at a density of 4000 cells per well in 96-well plates and stabilized for one day. The compounds 1 to 3 synthesized in Example 1 were serially diluted starting from a concentration of 10 μM and applied to the cells. The treated cells were incubated for three days, and cell viability was measured using CCK8 reagent, with the concentration at which 50% of the cancer cells died expressed as the GI50.

[2] = tested on: cisplatin-resistant cell line A2780/cis; test: Anticancer activity, CCK8 cell viability; type: cell-based; conditions: Homo sapiens, A2780cis, 72 h, A2780/cis cells, three days, FIG. 1
Experimental: as §1

[3] = tested on: MDA-MB-453; test: Anticancer activity in other cancer cell lines; type: cell-based; conditions: Homo sapiens
Experimental: as §1
(§2) Additionally, the anticancer activity of the compounds was also observed in other cancer cell lines (blood cancer, breast cancer, ovarian cancer, lung cancer, and brain cancer), as well as in drug-resistant cancer cell lines (doxorubicin-resistant blood cancer K562/ADM; and paclitaxel-resistant breast cancer MDA-MB-231/PTX).

[4] = tested on: SKOV3; test: Anticancer activity in other cancer cell lines; type: cell-based; conditions: Homo sapiens, SK-OV-3
Experimental: as §1, §2

[5] = tested on: MDA-MB-231; test: Anticancer activity in other cancer cell lines; type: cell-based; conditions: Homo sapiens
Experimental: as §1, §2

[6] = tested on: A549; test: Anticancer activity in other cancer cell lines; type: cell-based; conditions: Homo sapiens
Experimental: as §1, §2

[7] = tested on: paclitaxel-resistant breast cancer MDA-MB-231/PTX; test: Anticancer activity in other cancer cell lines; type: cell-based; conditions: Homo sapiens
Experimental: as §1, §2

[8] = tested on: SH-SY5Y; test: Anticancer activity in other cancer cell lines; type: cell-based; conditions: Homo sapiens
Experimental: as §1, §2

[9] = tested on: U937; test: Anticancer activity in other cancer cell lines; type: cell-based; conditions: Homo sapiens, U-937
Experimental: as §1, §2

[10] = tested on: doxorubicin-resistant blood cancer K562/ADM; test: Anticancer activity in other cancer cell lines; type: cell-based; conditions: Homo sapiens
Experimental: as §1, §2

[11] = tested on: K562; test: Anticancer activity in other cancer cell lines; type: cell-based; conditions: Homo sapiens
Experimental: as §1, §2

[12] = target: MLK3 (h) (Homo sapiens, UniProt Q16584); test: Inhibition against kinase activity of MLK3 (33P-ATP filter assay); type: biochemical
Experimental: The kinase inhibition activity against MLK3 was measured as follows. Recombinant human […] protein was mixed with the compounds in a reaction solution (8 mM MOPS, pH 7.0, 0.2 mM EDTA, 0.33 mg/mL myelin basic protein, 5 mM DTT, 10 mM magnesium acetate, and 45 μM [gamma-33P-ATP]). The mixture was incubated at room temperature for 40 minutes. The reaction was terminated by adding phosphoric acid at a final concentration of 0.5%. A 10 μL aliquot of the reaction solution was then spotted onto a P30 filter, which was washed four times in 0.425% phosphoric acid solution for 4 minutes each and then washed once in methanol. The filters were dried, and MLK3 activity was measured via scintillation counting. The MLK3 activity observed in the control group free of the compounds was set as 100%, and the inhibition by the compounds was expressed relative to this control value. To calculate the IC50 value, the compounds were diluted in 9 concentrations, starting from a maximum of 1 μM in a threefold serial dilution. The IC50 was defined as the concentration at which 50% inhibition was observed.

[13] = target: HPK1 (h) (Homo sapiens (Human), UniProt Q92918); test: Inhibition against kinase activity of HPK1 (33P-ATP filter assay); type: biochemical
Experimental: Inhibition against kinase activity of HPK1 was measured as follows. Recombinant human HPK1 protein was mixed with the compounds in a reaction solution (8 mM MOPS, pH 7.0, 0.2 mM EDTA, 0.33 mg/mL myelin basic protein, 10 mM magnesium acetate, and 15 μM [gamma-33P-ATP]). The mixture was incubated at room temperature for 40 minutes. The reaction was terminated by adding phosphoric acid at a final concentration of 0.5%. A 10 μL aliquot of the reaction solution was spotted onto a P30 filter, washed four times in 0.425% phosphoric acid solution for 4 minutes each, and washed once with methanol. The filters were dried, and HPK1 activity was measured via scintillation counting. The HPK1 activity observed in the control group free of the compounds was set as 100%, and the inhibition by the compounds was expressed relative to this control value. To calculate the IC50 value, the compounds were diluted in 9 concentrations, starting from a maximum of 1 μM in a threefold serial dilution. The IC50 was defined as the concentration at which 50% inhibition was observed.

[14] = tested on: Human PBMC; test: IL-2 measurement for T cell activation enhancement; type: cell-based; conditions: CD3/CD28 Dynabeads, 6 days, FIG. 2
Experimental: Human PBMC was seeded at a density of 2×10^5 cells per well in a 96-well plate. The cells were pretreated for one hour with serial dilutions of the compounds 1 to 3 synthesized in Example 1 starting from 3 μM. Afterward, CD3/CD28 Dynabeads were added to the cells at a 1:1 ratio and incubated for 6 days. After incubation, the cells and media were analyzed using the Sartorius human T cell activation cell and cytokine profiling kit with the iQue system. IL-2, a biomarker used to assess T cell activation, was measured. The results were calculated by setting the positive control group (treated with Dynabeads alone) as 100%.

[15] = MLK3 (h), 45 μM ATP, read-out: IC50
[16] = approximate value, read-out: IC50 value for MLK3 inhibition
[17] = HPK1 (h), 15 μM ATP, read-out: IC50
[18] = approximate value, read-out: IC50 value for HPK1 inhibition

Sequence of MLK3 (h) (Q16584 whole entry, looked up): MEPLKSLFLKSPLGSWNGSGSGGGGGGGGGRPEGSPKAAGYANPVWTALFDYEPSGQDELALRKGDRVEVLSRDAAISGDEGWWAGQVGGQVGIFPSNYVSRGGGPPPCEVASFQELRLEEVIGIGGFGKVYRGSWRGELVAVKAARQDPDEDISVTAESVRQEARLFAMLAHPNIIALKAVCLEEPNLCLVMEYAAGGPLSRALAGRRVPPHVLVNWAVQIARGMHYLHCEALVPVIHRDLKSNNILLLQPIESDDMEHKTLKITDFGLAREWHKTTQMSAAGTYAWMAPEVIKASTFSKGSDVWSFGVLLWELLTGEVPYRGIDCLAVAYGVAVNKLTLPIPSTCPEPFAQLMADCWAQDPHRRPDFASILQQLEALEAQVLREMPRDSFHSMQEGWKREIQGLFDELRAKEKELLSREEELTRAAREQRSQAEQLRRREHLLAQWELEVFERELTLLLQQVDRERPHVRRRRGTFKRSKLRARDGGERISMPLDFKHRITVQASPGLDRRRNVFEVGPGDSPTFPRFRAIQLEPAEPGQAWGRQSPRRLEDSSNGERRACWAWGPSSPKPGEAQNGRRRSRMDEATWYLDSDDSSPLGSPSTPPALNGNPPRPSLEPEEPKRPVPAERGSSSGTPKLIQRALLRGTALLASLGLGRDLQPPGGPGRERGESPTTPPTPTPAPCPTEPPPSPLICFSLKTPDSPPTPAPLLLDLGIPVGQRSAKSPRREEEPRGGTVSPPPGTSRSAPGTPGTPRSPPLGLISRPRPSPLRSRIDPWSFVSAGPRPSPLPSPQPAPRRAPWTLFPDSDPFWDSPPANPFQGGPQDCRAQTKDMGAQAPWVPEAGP
Sequence of HPK1 (h) (Q92918 whole entry): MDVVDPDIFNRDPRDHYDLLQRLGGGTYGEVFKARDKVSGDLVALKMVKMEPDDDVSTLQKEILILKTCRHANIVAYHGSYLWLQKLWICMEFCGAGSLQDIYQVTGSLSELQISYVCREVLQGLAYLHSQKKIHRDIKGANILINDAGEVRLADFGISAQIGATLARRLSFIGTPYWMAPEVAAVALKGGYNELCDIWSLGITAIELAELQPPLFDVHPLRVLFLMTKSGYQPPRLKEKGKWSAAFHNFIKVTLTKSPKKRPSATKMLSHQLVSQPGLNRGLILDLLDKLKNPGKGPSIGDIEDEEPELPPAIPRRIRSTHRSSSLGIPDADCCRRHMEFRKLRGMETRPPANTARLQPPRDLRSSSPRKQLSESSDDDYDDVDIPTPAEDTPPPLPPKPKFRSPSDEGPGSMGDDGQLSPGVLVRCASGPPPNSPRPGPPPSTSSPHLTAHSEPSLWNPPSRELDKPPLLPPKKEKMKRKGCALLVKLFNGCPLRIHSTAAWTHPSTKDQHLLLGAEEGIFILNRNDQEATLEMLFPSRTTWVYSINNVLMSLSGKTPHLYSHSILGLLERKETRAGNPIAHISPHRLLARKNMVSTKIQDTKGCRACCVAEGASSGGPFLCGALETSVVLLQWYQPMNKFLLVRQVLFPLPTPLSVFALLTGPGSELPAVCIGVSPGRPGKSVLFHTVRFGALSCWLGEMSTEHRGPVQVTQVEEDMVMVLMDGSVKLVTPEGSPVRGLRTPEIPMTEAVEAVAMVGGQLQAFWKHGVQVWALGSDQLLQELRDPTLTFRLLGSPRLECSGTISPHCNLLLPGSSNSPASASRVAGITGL

Row | GI50 [1] [nM] | GI50 [2] [nM] | GI50 [3] [nM] | GI50 [4] [nM] | GI50 [5] [nM] | GI50 [6] [nM] | GI50 [7] [nM] | GI50 [8] [nM] | GI50 [9] [nM] | GI50 [10] [nM] | GI50 [11] [nM] | IC50 [12, 15] [nM] | IC50 [12, 16] [nM] | IC50 [13, 17] [nM] | IC50 [13, 18] [nM] | SMILES | IL-2 levels (T cell activation) [14]
1 | ~200 | ~400 | 1020 | 1700 | 1250 | 1610 | 990 | 390 | 290 | 3740 | 430 | 100 to 500 | ~140 | 1 to 100 | ~30 | CC1(C)OC(=O)c2ccc(Nc3nc(Nc4ccc5c(c4)CCNC5)ncc3Cl)cc21 [Compound 1, 5-((5-chloro-2-((1,2,3,4-tetrahydroisoquinolin-6-yl)amino)pyrimidin-4-yl)amino)-3,3-dimethylisobenzofuran-1(3H)-one] | increased IL-2 levels
2 | ~210 | ~310 | 2900 | 1500 | 1030 | 1150 | 770 | 280 | 440 | 2280 | 1070 | 100 to 500 | ~200 | 1 to 100 | ~50 | CC1(C)OC(=O)c2cc(Nc3nc(Nc4ccc5c(c4)CCNC5)ncc3Cl)ccc21 [Compound 2, 6-((5-chloro-2-((1,2,3,4-tetrahydroisoquinolin-6-yl)amino)pyrimidin-4-yl)amino)-3,3-dimethylisobenzofuran-1(3H)-one] | increased IL-2 levels
3 |  |  | 1070 | > 10000 | 1350 | > 10000 | 1110 | 550 | > 10000 | > 10000 | > 10000 | > 1000 |  | 500 to 1000 | ~900 | CC1(C)OC(=O)c2ccc(Nc3ncc(Cl)c(Nc4ccc5c(c4)C(C)(C)OC5=O)n3)cc21 [Compound 3, 5,5′-((5-Chloropyrimidine-2,4-diyl)bis(azanediyl))bis(3,3-dimethylisobenzofuran-1(3H)-one)] | 
